One experiment has as its target Human LDHA (Homo sapiens (Human), UniProt P00338). Description: human LDHA primary biochemical assay (resazurin/diaphorase coupled, fluorescence). The text has this:
Test compounds were placed in a Greiner Bio-One (Monroe, N.C.) 1536-well black solid bottom assay plate. 200 millimolar (mM) Tris HCl, pH 7.4, 100 micromolar […] EDTA and 0.01% TWEEN-20™, final concentration, was used as the assay buffer. The LDHA reagent was 2 nanomolar (nM) Human LDHA (Meridian Life Science, Inc., Memphis, Tenn.), final concentration, in assay buffer.

The subject of the next experiment is MiaPaCa2 cells. Description: cell-based HT lactate assay, colorimetric/fluorometric detection (inhibition of lactate production). The note with it: class symbols, 0 to 3 pluses.
Where [1] appears, read: read-out: Inhibitory activity IC50.
Where [2] appears, read: LDHA inhibitory activity, activity level based on IC50 (Table 7).
The mark [3] stands for this setting: LDHA inhibitory activity, assay of Example 1, activity level classes.

Structures can show the parent of a compound that is named as a salt. Where two headings read alike, the source gives them in different places.

The IC50 is the concentration at which inhibition is half-maximal. Take `Cc1cnc(-c2cc(-c3nn(-c4nc(C(=O)O)cs4)c(CC4CC4)c3Cc3ccc(S(N)(=O)=O)c(F)c3)ccc2F)s1` [Compound 231, 2-(5-(cyclopropylmethyl)-3-(4-fluoro-3-(5-methylthiazol-2-yl)phenyl)-4-(3-fluoro-4-sulfamoylbenzyl)-1H-pyrazol-1-yl)thiazole-4-carboxylic acid, TFA]: the IC50 on Human LDHA (setting [1]) was below 0.1 µM; in the experiment on MiaPaCa2 cells (Homo sapiens, MIA PaCa-2), below 1 µM.
For `Cc1ccc(-c2cc(-c3nn(-c4nc(C(=O)O)cs4)c(CC4CC4)c3Cc3ccc(S(N)(=O)=O)c(F)c3)ccc2F)o1` [Compound 230, 2-(5-(cyclopropylmethyl)-3-(4-fluoro-3-(5-methylfuran-2-yl)phenyl)-4-(3-fluoro-4-sulfamoylbenzyl)-1H-pyrazol-1-yl)thiazole-4-carboxylic acid], in that order: below 0.1 µM and below 1 µM.
Consider `NS(=O)(=O)c1ccc(Cc2c(-c3ccc(F)c(C#CC(F)F)c3)nn(-c3nc(C(=O)O)cs3)c2CC2CC2)cc1F` [Compound 440], for which the IC50 is below 0.1 µM on Human LDHA (setting [2]) and 1 to 10 µM in the experiment with MiaPaCa2 cells.
For the compound `Cc1ccc(-c2cc(-c3nn(-c4nc(C(=O)O)cs4)c(CC4CC4)c3Cc3ccc(S(N)(=O)=O)cc3F)ccc2F)s1` [Compound 233, 2-(5-(cyclopropylmethyl)-3-(4-fluoro-3-(5-methylthiophen-2-yl)phenyl)-4-(2-fluoro-4-sulfamoylbenzyl)-1H-pyrazol-1-yl)thiazole-4-carboxylic acid], the IC50 at Human LDHA (setting [1]) was below 0.1 µM; with MiaPaCa2 cells (Homo sapiens, MIA PaCa-2) it was below 1 µM.
As to `CCOC(=O)c1csc(-n2nc(-c3cccc(-c4ccc(C)cc4)c3)c(Cc3ccc(S(N)(=O)=O)c(F)c3)c2CC2CC2)n1` [Compound 266], the figures for the IC50 against Human LDHA (setting [3]) and in the experiment on MiaPaCa2 cells were 1 to 57 µM and above 57 µM, respectively.
Consider `Cc1ncc(-c2cc(-c3nn(-c4nc(C(=O)O)cs4)c(CC4CC4)c3Cc3ccc(S(N)(=O)=O)c(F)c3)ccc2F)s1` [Compound 232, 2-(5-(cyclopropylmethyl)-3-(4-fluoro-3-(2-methylthiazol-5-yl)phenyl)-4-(3-fluoro-4-sulfamoylbenzyl)-1H-pyrazol-1-yl)thiazole-4-carboxylic acid], for which the IC50 at Human LDHA (setting [1]) is below 0.1 µM; in the experiment on MiaPaCa2 cells (Homo sapiens, MIA PaCa-2), below 1 µM.
`N[S+](=O)([O-])c1ccc(Cc2c(-c3ccc(F)c(-c4ccccc4F)c3)nn(-c3nc(C(=O)O)cs3)c2CC2CC2)cc1F` [Compound 366]: the IC50 against Human LDHA (setting [2]) was below 0.1 µM; in the experiment on MiaPaCa2 cells it was below 1 µM.
The corresponding values for `N[S+](=O)([O-])c1ccc(Cc2c(-c3ccc(F)c(C4=CCN(C(=O)C5CC5)CC4)c3)nn(-c3nc(C(=O)O)cs3)c2CC2CC2)cc1F` [Compound 380] are below 0.1 µM and 1 to 10 µM.
For `NS(=O)(=O)c1ccc(Cc2c(-c3ccc(F)c(C4CCCC4)c3)nn(-c3nc(C(=O)O)cs3)c2CC2CC2)cc1F` [Compound 373], the half-inhibitory concentration (IC50) is below 0.1 µM on Human LDHA (setting [2]) and below 1 µM in the experiment on MiaPaCa2 cells.
The corresponding values for `CC1(C#Cc2cc(-c3nn(-c4nc(C(=O)O)cs4)c(CC4CC4)c3Cc3ccc(S(N)(=O)=O)c(F)c3)ccc2F)COC1` [Compound 416] are below 0.1 µM and 1 to 10 µM.
`N[S+](=O)([O-])c1ccc(Cc2c(-c3cccc(C#CC4CCCC4)c3)nn(-c3nc(C(=O)O)cs3)c2CC2CC2)cc1F` [Compound 432]: the IC50 against Human LDHA (setting [2]) is below 0.1 µM; in the experiment on MiaPaCa2 cells it was below 1 µM.
For `N[S+](=O)([O-])c1ccc(Cc2c(-c3ccc(F)c(-c4cccc(F)c4)c3)nn(-c3nc(C(=O)O)cs3)c2CC2CC2)c(F)c1` [Compound 324], the figures for the concentration for half-maximal inhibition (IC50) on Human LDHA (setting [3]) and in the experiment on MiaPaCa2 cells were below 0.1 µM and below 1 µM, respectively.
In the case of `NS(=O)(=O)c1ccc(Cc2c(-c3ccc(F)c(Oc4ccc(F)cc4)c3)nn(-c3nc(C(=O)O)cs3)c2CC2CC2)cc1F` [Compound 511, 2-(5-(cyclopropylmethyl)-3-(4-fluoro-3-(4-fluorophenoxy)phenyl)-4-(3-fluoro-4-sulfamoylbenzyl)-1H-pyrazol-1-yl)thiazole-4-carboxylic Acid], the IC50 on Human LDHA (setting [2]) is below 0.1 µM; with MiaPaCa2 cells (Homo sapiens, MIA PaCa-2), 1 to 10 µM.
For `CN1CC=C(c2cc(-c3nn(-c4nc(C(=O)O)cs4)c(CC4CC4)c3Cc3ccc(S(N)(=O)=O)c(F)c3)ccc2F)CC1` [Compound 259], the IC50 on Human LDHA (setting [3]) is below 0.1 µM; in the experiment on MiaPaCa2 cells, 10 to 57 µM.
In the case of `CCOC(=O)c1csc(-n2nc(-c3ccc(F)c(C#CC4CC4)c3)c(Cc3ccc(S(N)(=O)=O)cc3)c2CC2CC2)n1` [Compound 435], the results for the IC50 at Human LDHA (setting [2]) and with MiaPaCa2 cells were 1 to 57 µM and above 57 µM, respectively.
For the compound `Cc1ccc(Oc2cc(-c3nn(-c4nc(C(=O)O)cs4)c(CC4CC4)c3Cc3ccc(S(N)(=O)=O)c(F)c3)ccc2F)cc1` [Compound 510, 2-(5-(cyclopropylmethyl)-3-(4-fluoro-3-(p-tolyloxy)phenyl)-4-(3-fluoro-4-sulfamoylbenzyl)-1H-pyrazol-1-yl)thiazole-4-carboxylic Acid], the IC50 on Human LDHA (setting [2]) was below 0.1 µM; with MiaPaCa2 cells (Homo sapiens, MIA PaCa-2), below 1 µM.
Take `CC(C)C#Cc1cc(-c2nn(-c3nc(C(=O)O)cs3)c(CC3CC3)c2Cc2ccc([S+](N)(=O)[O-])c(F)c2)ccc1F` [Compound 445]: the values for the IC50 against Human LDHA (setting [2]) and in the experiment on MiaPaCa2 cells were below 0.1 µM and below 1 µM, respectively.
For `COc1cccc(-c2cc(-c3c(Cc4ccc(S(N)(=O)=O)cc4F)c(CC4CC4)nn3-c3nc(C(=O)O)cs3)ccc2F)c1` [Compound 327], the IC50 against Human LDHA (setting [3]) fell in the range of 1 to 57 µM; with MiaPaCa2 cells, 10 to 57 µM.
As for `COCC#Cc1cc(-c2nn(-c3nc(C(=O)O)cs3)c(CC3CC3)c2Cc2ccc([S+](N)(=O)[O-])c(F)c2)ccc1F` [Compound 404], the IC50 was below 0.1 µM against Human LDHA (setting [2]) and below 1 µM in the experiment on MiaPaCa2 cells (Homo sapiens, MIA PaCa-2).
`N[S+](=O)([O-])c1ccc(Cc2c(-c3ccc(F)c(-c4ccc(F)cc4)c3)nn(-c3nc(C(=O)O)cs3)c2CC2CC2)c(F)c1` [Compound 309]: the IC50 against Human LDHA (setting [3]) was below 0.1 µM; in the experiment with MiaPaCa2 cells, below 1 µM.
For `NS(=O)(=O)c1ccc(Cc2c(-c3cc(F)cc(-c4ccc(F)cc4)c3)nn(-c3nc(C(=O)O)cs3)c2CC2CC2)cc1` [Compound 479, 2-(5-(cyclopropylmethyl)-3-(4′,5-difluoro-[1,1′-biphenyl]-3-yl)-4-(4-sulfamoylbenzyl)-1H-pyrazol-1-yl)thiazole-4-carboxylic Acid], the IC50 against Human LDHA (setting [2]) was below 0.1 µM; in the experiment with MiaPaCa2 cells (Homo sapiens, MIA PaCa-2), below 1 µM.
Regarding `NS(=O)(=O)c1ccc(Cc2c(-c3ccc(F)c(-c4cccs4)c3)nn(-c3nc(C(=O)O)cs3)c2CC2CC2)cc1F` [Compound 234, 2-(5-(cyclopropylmethyl)-3-(4-fluoro-3-(thiophen-2-yl)phenyl)-4-(3-fluoro-4-sulfamoylbenzyl)-1H-pyrazol-1-yl)thiazole-4-carboxylic acid, TFA], the IC50 on Human LDHA (setting [1]) was below 0.1 µM; in the experiment on MiaPaCa2 cells (Homo sapiens, MIA PaCa-2), below 1 µM.
With `N=[S+](N)([O-])c1ccc(Cc2c(-c3ccc(F)c(-c4cccc(F)c4)c3)nn(-c3nc(C(=O)O)cs3)c2CC2CC2)cc1F` (stereo not shown) [Compound 371], the IC50 against Human LDHA (setting [2]) was below 0.1 µM; with MiaPaCa2 cells, below 1 µM.
Regarding `CCOC(=O)c1csc(-n2nc(-c3ccc(F)c(-c4ccc(C)s4)c3)c(Cc3ccc(S(N)(=O)=O)c(F)c3)c2CC2CC2)n1` [Compound 229, ethyl 2-(5-(cyclopropylmethyl)-3-(4-fluoro-3-(5-methylthiophen-2-yl)phenyl)-4-(3-fluoro-4-sulfamoylbenzyl)-1H-pyrazol-1-yl)thiazole-4-carboxylate], the IC50 on Human LDHA (setting [1]) was above 57 µM; in the experiment on MiaPaCa2 cells (Homo sapiens, MIA PaCa-2), above 57 µM.
Consider `Cc1cc(-c2ccc(F)cc2)cc(-c2nn(-c3nc(C(=O)O)cs3)c(CC3CC3)c2Cc2ccc(S(N)(=O)=O)cc2)c1` [Compound 506, 2-(5-(cyclopropylmethyl)-3-(4′-fluoro-5-methyl-[1,1′-biphenyl]-3-yl)-4-(4-sulfamoylbenzyl)-1H-pyrazol-1-yl)thiazole-4-carboxylic Acid], for which the IC50 at Human LDHA (setting [2]) was below 0.1 µM; with MiaPaCa2 cells (Homo sapiens, MIA PaCa-2), 1 to 10 µM.
`NS(=O)(=O)c1ccc(Cc2c(-c3ccc(F)c(C#CC4CCC4)c3)nn(-c3nc(C(=O)O)cs3)c2CC2CC2)cc1F` [Compound 446]: the IC50 was below 0.1 µM against Human LDHA (setting [2]) and below 1 µM with MiaPaCa2 cells.
As for `N[S+](=O)([O-])c1ccc(Cc2c(-c3ccc(F)c(-c4ccc(C5CC5)cc4)c3)nn(-c3nc(C(=O)O)cs3)c2CC2CC2)cc1` [Compound 294], the values for the IC50 against Human LDHA (setting [3]) and with MiaPaCa2 cells were below 0.1 µM and below 1 µM, respectively.
With `Cc1noc(C)c1-c1cc(-c2nn(-c3nc(C(=O)O)cs3)c(CC3CC3)c2Cc2ccc(S(N)(=O)=O)cc2F)ccc1F` [Compound 215, 2-(5-(cyclopropylmethyl)-3-(3-(3,5-dimethylisoxazol-4-yl)-4-fluorophenyl)-4-(2-fluoro-4-sulfamoylbenzyl)-1H-pyrazol-1-yl)thiazole-4-carboxylic acid], the IC50 on Human LDHA (setting [1]) was below 0.1 µM; with MiaPaCa2 cells (Homo sapiens, MIA PaCa-2), 10 to 57 µM.
Turning to `NS(=O)(=O)c1ccc(Cc2c(-c3cccc(N4CCCC(F)(F)C4)c3)nn(-c3nc(C(=O)O)cs3)c2CC2CC2)cc1F` [Compound 397], the IC50 at Human LDHA (setting [2]) is below 0.1 µM; in the experiment on MiaPaCa2 cells it was 1 to 10 µM.
Turning to `NS(=O)(=O)c1ccc(Cc2c(-c3ccc(F)c(C(=O)NCc4ccccc4)c3)nn(-c3nc(C(=O)O)cs3)c2CC2CC2)cc1F` [Compound 544, 2-(3-(3-(benzylcarbamoyl)-4-fluorophenyl)-5-(cyclopropylmethyl)-4-(3-fluoro-4-sulfamoylbenzyl)-1H-pyrazol-1-yl)thiazole-4-carboxylic acid], the IC50 on Human LDHA (setting [2]) is below 0.1 µM; in the experiment on MiaPaCa2 cells (Homo sapiens, MIA PaCa-2) it was 1 to 10 µM.
For the compound `NS(=O)(=O)c1ccc(Cc2c(-c3ccc(F)c(-c4cccc(F)c4)c3)nn(-c3nc(C(=O)O)cs3)c2CC2CC2)cc1` [Compound 239], the IC50 against Human LDHA (setting [3]) is below 0.1 µM; in the experiment on MiaPaCa2 cells, below 1 µM.
For the compound `N[S+](=O)([O-])c1cccc(Cc2c(-c3ccc(F)c(C#CC4CCCC4)c3)nn(-c3nc(C(=O)O)cs3)c2CC2CC2)c1` [Compound 438], the IC50 against Human LDHA (setting [2]) is 0.1 to 1 µM; with MiaPaCa2 cells, 1 to 10 µM.

(Values after patent publication US10961200B2, “Small molecule inhibitors of lactate dehydrogenase and methods of use thereof” (THE UNITED STATES OF AMERICA, AS REPRESENTED BY THE …, priority 2014, dated 2021).)
